In paper PMC7867085, “In Vitro and In Vivo Antitumor Activity of Indolo[2,3-b] Quinolines, Natural Product Analogs from Neocryptolepine Alkaloid” (Molecules, 2021):
pIC50: −log10 of the molar value.

Assays:
[1] = DPPH free radical scavenging assay; conditions: means ± SD (n = 3); amount needed to scavenge 50% of DPPH radicals
Experimental: Over-production and the accumulation of free radicals inside the body leads to a phenomenon known as oxidative stress, which causes many serious diseases such as cancer, cardiovascular, and inflammation. Moreover, the harmful effects of this phenomenon can be reduced via using antioxidant compounds as free radical scavengers. Therefore, free radical scavenging capabilities were determined for all compounds by 2,2-diphenyl-1-picrylhydrazyl (DPPH) assay using ascorbic acid (AA) as standard for comparison. The DPPH reducing capabilities of the synthetic analogs 6a–d were evaluated by determining their IC50 values. […] The IC50 value corresponds to the concentration of a sample, which has the ability to scavenge 50% of the free radicals present in the reaction mixture. Low IC50 values indicate that the compound in the sample has high antioxidant activity. […] At the same time, the analog 6c with pyrimidine moiety had the lowest antioxidant activity (9.2 × 10^−5 µM). […]
To 1 mL of various concentrations of ascorbic acid, neocryptolepine and indoloquinoline analogs prepared from methanol, 1 mL solution of DPPH, 0.1 mM was added. […] After 20 min incubation in the dark, absorbance was recorded at 517 nm. […] The percentage scavenging of the extract was calculated.

[2] = system: Ehrlich ascites carcinoma (EAC) cells; experiment: In vitro cytotoxic activity, trypan blue dye exclusion; format: cell-based, mice; conditions: Mus musculus, Ehrlich, 3 h incubation at 37 °C
Experimental: The synthesized indoloquinoline analogs 6a–d were evaluated for their cytotoxic activity against Ehrlich ascites carcinoma (EAC), as depicted in Table 1. The EAC cells used in this study were supplied by National Cancer Institute, Cairo, Egypt. The cells were maintained in vivo in Swiss Albino female mice by intraperitoneal transplantation (0.2 mL of 2 × 10^6 cells/mL). EAC cells were aspirated from the peritoneal cavity of mice, washed with saline and given intraperitoneally to develop ascites tumor. Trypan blue dye exclusion technique was used to figure the viability percentage of EAC cells to assay the cytotoxic activity of the studied compounds. In brief, under completely sterile conditions, EAC cells were separated away from the mice abdomens. Hank’s balanced salt solution (HBSS) was used to wash the separated cells. Cells were put in a cooling centrifuge at 1500 rpm for 15 min; the produced granules were put back into suspension using HBSS, the mentioned steps were done in triplicate. Finally, a measured volume of RPMI 1640 was used to suspend the cells, followed by the addition of 10% fetal bovine serum, 10 µg/mL streptomycin and 100 U/mL penicillin. Consequently, the cell count was adjusted to 2 × 10^6 cells/mL from the prepared diluted cell suspension 0.2 mL was titrated in 96 flat-bottomed tissue culture plates. Serial concentrations of each tested compound were prepared and added in triplicate and incubated at 37 °C for 3 h in a 5% CO2 atmosphere. The IC50 parameter (half-maximum inhibitory concentration) was calculated using Trypan blue dye exclusion test, and then the cytotoxic effect was evaluated using control EAC cells. Thalidomide was used as a reference drug alongside the parent natural compound neocryptolepine I for comparison. Thalidomide was used as a reference drug because its mechanism of action is expected to be similar to the mechanism of action of neocryptolepine analogs as its anticancer action may be based on its antiangiogenic action, resulting from specific DNA intercalation as well as induce cell cycle arrest.
The percentage of EAC cell death of the synthesized derivatives was evaluated by trypan blue exclusion assay. In addition, the compounds 6a–d, as well as the reference drug thalidomide and the parent natural compound neocryptolepine (I), were evaluated through eight concentration levels. It is worth noting that this cytotoxicity was dose-dependent when compared to the reference drug, thalidomide and the control, which was treated with the corresponding dilutions of DMSO.
As a preparation step to perform cytotoxicity assay against the EAC cell line, thalidomide, parent neocryptolepine and the indoloquinoline compounds a 6a, 6b, 6c and 6d were dissolved in DMSO/saline (0.3:0.7) to prepare a solution of 10 mmol concentration. The stock solutions were stored at 4 °C and were used all over the assay. EAC cells were supplied by the National Cancer Institute, Cairo, Egypt. The cells were maintained in vivo in Swiss albino female mice by intraperitoneal transplantation (0.2 mL of 2 × 10^6 cells/mL). EAC cells were aspirated from the peritoneal cavity of mice, washed with saline, and given intraperitoneally to develop ascites tumor.
Trypan blue dye exclusion technique was used to figure the viability percentage of EAC cells to assay the cytotoxic activity of the studied compounds. In brief, under completely sterile conditions, EAC cells were separated away from the mice’s abdomen. Hank’s balanced salt solution (HBSS) was used to wash the separated cells. The cells were put in a cooling centrifuge at 1500 rpm for 15 min; the produced granules were put back into suspension using HBSS, the mentioned steps were done in triplicate. Finally, a measured volume of RPMI 1640 was used to suspend the cells, followed by the addition of 10% fetal bovine serum, 10 µg/mL streptomycin and 100 U/mL penicillin and the cell count was adjusted to 2 × 10^6 cells/mL. […]

[3] = system: solid-tumor (EAC) bearing mice (liver homogenate); experiment: Lipid peroxidation and antioxidant enzymes in liver homogenate of solid-tumor bearing mice; format: in vivo, Swiss female albino mice; conditions: 100 mg/kg for 5 days, liver
Experimental: Measuring antioxidant enzyme levels and lipid peroxidation was utilized to evaluate the pharmacological effect of indoloquinoline derivatives. The study group was divided into two subgroups, normal mice and tumor-bearing mice. Each subgroup is further subdivided into two groups, one group received indoloquinoline derivatives, and the other group was marked as a placebo group.
After administration of indoloquinoline analogs 6a, 6b, 6c and 6d at a dose of 100 mg/kg for 5 constitutive days to mice with EAC, the levels of lipid peroxidation were highly significant less than that of the positive control group (p < 0.001). Meanwhile, the level of SOD in the liver homogenate of positive bearing mice was 32.1% (p < 0.001) less than that of the normal group (Table 5).
The eradicated liver was double washed first, with ice-cold normal saline then, with cold 0.15 mol/L Tris-HCl buffer (pH 7.4). The clean organ was dried and weighed, and used to prepare a 10% w/v homogenate in 0.15 mol/L Tris-HCl buffer. A portion of the prepared homogenate was centrifuged at 1500 rpm for 15 min at 4 °C [47] and used for estimating lipid peroxidation, SOD [48] and CAT [49] analysis was carried out using the supernatant.

[4] = system: EAC-induced solid tumor; experiment: Antitumor activity: reduction in tumor volume of EAC-induced solid tumor; format: in vivo, Swiss female albino mice; conditions: day 12 (last day of treatment), 100 mg/kg SC daily for five consecutive days
Experimental: The aim of this study is to characterize indoloquinoline analogs 6a–d curative ability and antineoplastic activity on solid-form of Ehrlich tumors. Tumor volume is a potential biomarker for Ehrlich tumor development. The induction of solid tumor in Swiss female mice performed by inserting 0.2 mL of EAC cells (2 × 10^6 cell/mL) subcutaneously (SC) between thighs of the lower limb. When the tumor volume reached 15–20 mm^3 (Seven days after tumor induction), the mice were randomly divided into 6 groups (n = 10), five groups were injected subcutaneously with thalidomide and indoloquinoline analogs 6a–d (100 mg/kg) daily for five consecutive days, the sixth group (positive control group) were given DMSO/saline (0.3/0.7). The 8th day is considered the zero days of treatment. The tumor volume was daily measured with a vernier caliper for four days stated from day eight.
Thalidomide and indoloquinoline derivatives 6a–d were tested for their antitumor effect; the test was done in vivo on mice-bearing solid tumors. The induction of solid tumor in Swiss female mice performed by inserting 0.2 mL of EAC cells (2 × 10^6 cell/mL) subcutaneously (SC) between thighs of the lower limb. Seven days after tumor induction, animals were divided into 6 groups (n = 10), five groups were injected subcutaneously with 100 mg/kg of tested compounds daily for 5 consecutive days, the sixth group (positive control group) were given 0.3 DMSO/0.7 H2O. On day twelve, after carrying out EAC cells, mice were sacrificed, dissected, and change in tumor mass was evaluated by measuring the developed tumor mass volume using the formula [45, 46]:Tumor volume (mm^3) = 0.52 × length × (width)^2.(1)

[5] = system: MG-63 cells; design: method as in PMID 18951804, PMID 2953123; conditions: ref [34],[35]; cited from earlier work

Row | Compound | pIC50 [1] | pIC50 [2] | CAT [3] [KU/mg Tissue/s] | Lipid Peroxidation [3] [nmol MDA/g Tissue] | SOD [3] [U/g Tissue] | reduction percentage in tumor volume [4] [%] | effect on cell cycle [5]
1 | O=C1O[C@H]([C@@H](O)CO)C(O)=C1O [Ascorbic acid, ascorbic acid] | 10.38 |  |  |  |  |  | 
2 | Cn1c2nc3ccccc3c-2cc2ccccc21 [Neocryptolepine, 5-methyl-5H-indolo[2,3-b] quinoline] |  | 9.27 |  |  |  |  | 
3 | O=C1CCC(N2C(=O)c3ccccc3C2=O)C(=O)N1 (centres unmarked) [Thalidomide, reference compound] |  | 9.59 | 5.8 ± 1.5 | 330.2 ± 8.1 | 108.4 ± 10.2 | 67.20 | induced cell cycle arrest by increasing the number of cells in the G0/G1 phase and decreasing the percentage of S phase
